Measurements published in patent US20170042962A1, “AGENT FOR PREVENTING OR AM[…] ENDOTHELIAL MALFUNCTION” (KYOWA HAKKO BIO CO., LTD., priority 2012, published 2017).

Tested on: HUVEC
Assay: NO production (nitrite, NO2, in culture supernatant by HPLC) after adding samples to HUVEC
Assay type: cell-based, human
Conditions: citrulline final concentration 0.3 mM, 24-hour culture, vs control (PBS)
Description: The cells were cultured in at 37° C., in 5% CO2 incubator, and used for experiment after 4 to 6 passages. Citrulline and reduced glutathione were obtained from Kyowa Hakko Bio.
A cell suspension (0.45 mL) with the adjusted initial cell concentration of 5×10^5 cells/mL was inoculated in a 24-well plate (IWAKI).
Media with the sole addition of solvent (PBS) were used as a control group. After 24-hour culture, the cell culture (100 μL) was centrifuged at 12,000 rpm for 10 minutes, and the concentration of nitrite (NO2), which is the stable NO metabolite, in culture supernatant was quantified by HPLC (ENO-20, EICOM).

NC(=O)NCCC[C@H](N)C(=O)O [citrulline, L-citrulline]
effect on NO production (nitrite concentration in culture supernatant): no effect
